Earlier results in patent US11465999B2, “Process for preparing Alectinib or a pharmaceutically acceptable salt thereof” (FRESENIUS KABI ONCOLOGY LIMITED, priority 2017, dated 2022).
Structures can show the parent of a compound that is named as a salt.

Assays:
[1] = in water across the whole pH range and in different solvents
[2] = high humidity: absorbs moisture to form a tetrahydrate; low humidity: dehydrates to anhydrate; drying

Structure (SMILES) | solubility [1] | stability of crystalline form [2]
CCc1cc2c(cc1N1CCC(N3CCOCC3)CC1)C(C)(C)c1[nH]c3cc(C#N)ccc3c1C2=O [Alectinib hydrochloride] | insoluble | 
CCc1cc2c(cc1N1CCC(N3CCOCC3)CC1)C(C)(C)c1[nH]c3cc(C#N)ccc3c1C2=O.Cl [type III] |  | converts to type II on drying
CCc1cc2c(cc1N1CCC(N3CCOCC3)CC1)C(C)(C)c1[nH]c3cc(C#N)ccc3c1C2=O.Cl [type II] |  | not stable
